The values that follow come from patent US20190255199A1, “NON-INVASIVE DIAGNOSTIC IMAGING AGENT FOR HEART DISEASE” (Nihon Medi-Physics Co., Ltd., priority 2016, published 2019).

The test system of experiment [1] is ischemic heart disease model rat. As to the kind of experiment: Ex vivo autoradiography using ischemic heart disease model rat (Example 2). The experiment is classed as in vivo. How it is done:
(§1) The chest of each Wistar rat (male) was opened under isoflurane anesthesia, and the left coronary artery was ligated for 30 minutes, followed by reperfusion. The chest was closed to prepare an ischemic heart disease model rat. Approximately 1 week after the operation, the rat was sacrificed under anesthesia, and the heart was taken out thereof. Sections of 5 μm in thickness were prepared from the base side of the heart. Immunostaining was carried out using the prepared sections to confirm the expression and distribution of CPY11B2. As an anti-CYP11B2 antibody, one prepared according to the method described in Ogishima T et al., Endocrinology, 1992, vol. 130, pp. 2971-7 was used. As a secondary antibody, HRP Labelled Polymer Anti-Rabbit (manufactured by Dako/Agilent Technologies, Inc.) was used. CYP11B2 expression sites were detected by applying DAB+(3,3′-diaminobenzidine tetrahydrochloride) substrate kit (manufactured by Dako/Agilent Technologies, Inc.) to the HRP bound to the secondary antibody.
Each ischemic heart disease model rat was prepared in the same way as in Example 1. Compound [^18F] 1 was administered thereto (approximately 50 MBq/rat) between 1 and 3 weeks after the operation. 20 minutes after the administration, the rat was sacrificed under anesthesia, and the heart was taken out thereof. […]

For experiment [2], the system named is heart tissue section of an ischemic heart disease model rat. Nature of the experiment: In vitro autoradiography using ischemic heart disease model rat (Example 3). The experiment is classed as binding. Particulars: for accumulation in the presence of an excessive amount of non-labeled compound (binding specificity): 5 μmol/L non-labeled compound (Compound 1 or Compound 2) added, FIG. 4(e)-(h) / FIG. 5(c),(d); for ratio of ischemia reperfusion site signal intensity/non-ischemic site signal intensity: ROI on autoradiograms, n=4, FIG. 7; for accumulation in lesion region on in vitro autoradiogram: sections immersed in labeled compound solution 30 minutes at room temperature, FIG. 4 / FIG. 5. How it is done: as §1
Each ischemic heart disease model rat was prepared in the same way as in Example 1. The rat was sacrificed under isoflurane anesthesia between 1 and 3 weeks after the operation. Then, the heart was harvested, and 5 μm sections were prepared and preserved at −80° C. until they were used. The sections were brought back to room temperature from −80° C., dried for 30 minutes or longer, then immersed in phosphate-buffered saline for 30 minutes, and subsequently immersed in phosphate-buffered saline containing 1 w/v % bovine serum albumin for 30 minutes for hydrophilization. Each phosphate-buffered saline containing 1 w/v % bovine serum albumin and further containing Compound [^18F] 1 (radioactivity concentration: approximately 40 kBq/mL) or Compound [^123I] 2 (radioactivity concentration: approximately 10 kBq/mL) was prepared, and the hydrophilized sections were immersed therein at room temperature for 30 minutes. Then, the sections were washed by immersing for 5 minutes each in phosphate-buffered saline containing 1 w/v % bovine serum albumin, phosphate-buffered saline, and phosphate-buffered saline. The sections thus washed were thoroughly dried and then exposed to light for approximately 3 hours as to Compound [^18F] 1 and for approximately 16 hours as to Compound [^123I] 2 on an imaging plate (BAS-SR2040, manufactured by Fujifilm Corp.). Autoradiograms were obtained using a fluoro image analyzer (FLA-7000, manufactured by GE Healthcare Corp.).
Also, autoradiograms were obtained by immersing the sections in a solution containing Compound [^18F] 1 together with 5 μmol/L of Compound 1, or a solution containing Compound [^123I] 2 together with 5 μmol/L of Compound 2 in the same way as above.
The same experiment as above was conducted using the heart harvested from a normal rat.
ROI was established at an ischemia reperfusion site and a non-ischemic site as to the autoradiography of Compound [^18F] 1 and Compound [^123I] 2, and the ratio of signal intensity was compared between these sites. FIG. 7(a) is one example of an autoradiogram of the section immersed in Compound [^18F] 1. FIG. 7(c) is one example of an autoradiogram of the section immersed in Compound [^123I] 2. In both FIGS. 7(a) and 7(c), ROI of the ischemia reperfusion site is surrounded with the solid line, and ROI of the non-ischemic site is surrounded with the broken line. […] 1 in each rat. […] 2 in each rat. […] 1 and Compound [^123I] 2 at the ischemia reperfusion site compared with the non-ischemic site was observed. Higher accumulation of Compound [^123I] 2 than that of Compound [^18F] 1 was also observed.

For experiment [3] the test system is unchanged. Nature of the experiment: Influence of elapsed time after ischemic heart disease model rat preparation on compound accumulation, in vitro autoradiography (Example 4). The following applies: normal rat and 1 day, 3 days, 1 week after the operation, FIG. 8(a). The experiment is classed as binding. How it is done:
as §1
Each ischemic heart disease model rat was prepared in the same way as in Example 1. The rat was sacrificed under isoflurane anesthesia 1 day (3 rats), 3 days (4 rats) or 1 week (4 rats) after the operation. […] 2 (radioactivity concentration: approximately 10 kBq/mL) was prepared, and the hydrophilized sections were immersed therein at room temperature for 30 minutes. […]

The subject of experiment [4] is ischemic heart disease model rat. Nature of the experiment: SPECT imaging experiment using ischemic heart disease model rat (Example 5). Particulars: approximately 100 MBq/rat, one week after operation, static imaging started 150 minutes after administration, FIG. 9(d)-(f). The experiment is classed as in vivo. Here is the method:
as §1
Each ischemic heart disease model rat was prepared in the same way as in Example 1. Compound [^123I] 2 was administered thereto (approximately 100 MBq/rat) in one week after the operation. Static imaging for approximately 8 minutes was started at 150 minutes after the administration using a SPECT apparatus for animals (FX3000, manufactured by TriFoil Imaging). […]

The subject of the next experiment is normal rat. As to the kind of experiment: SPECT imaging experiment using normal rat (Example 5). The experiment is classed as in vivo. The following applies: approximately 100 MBq/rat, imaging started 150 minutes after administration, FIG. 9(a)-(c). How it is done: Each ischemic heart disease model rat was prepared in the same way as in Example 1. Compound [^123I] 2 was administered thereto (approximately 100 MBq/rat) in one week after the operation. Static imaging for approximately 8 minutes was started at 150 minutes after the administration using a SPECT apparatus for animals (FX3000, manufactured by TriFoil Imaging). Data collection was carried out in an energy window of 143 to 175 keV, and the collected data was reconstituted by OSEM (Ordered Subset Expectation Maximization) to obtain images. Computed tomography imaging was carried out in order to identify the position of the heart. The same experiment as above was conducted using a normal rat.

Experiment [5] has as its system heart tissue section of a myocarditis model rat. Nature of the experiment: In vitro autoradiography using myocarditis model rat (Example 7). The experiment is classed as binding.
The test system of experiment [6] is heart tissue section of a hypertensive heart disease model rat. As to the kind of experiment: In vitro autoradiography using hypertensive heart disease model rat (Example 9). The experiment is classed as binding. Here is the method:
Each DIS/Eis (Dahl-Iwai S) rat (male, Japan SLC, Inc.) was fed with 8% NaCl diet (Oriental Yeast Co., Ltd.) from the age of 5 weeks, raised up to the age of 11 weeks, and then sacrificed under anesthesia, and the heart was taken out thereof. Sections of 5 μm in thickness were prepared. Immunostaining was carried out using the prepared sections to confirm the expression and distribution of CPY11B2. As an anti-CYP11B2 antibody, one prepared according to the method described in Ogishima T et al., Endocrinology, 1992, vol. 130, pp. 2971-7 was used. As a secondary antibody, HRP Labelled Polymer Anti-Rabbit (manufactured by Dako/Agilent Technologies, Inc.) was used. CYP11B2 expression sites were detected by applying DAB+(3,3′-diaminobenzidine tetrahydrochloride) substrate kit (manufactured by Dako/Agilent Technologies, Inc.) to the HRP bound to the secondary antibody. The same experiment as above was conducted using the heart harvested from a DIS/Eis rat raised with a NaCl-free diet (normal rat).
Each hypertensive heart disease model rat was prepared in the same way as in Example 8. The heart was harvested, and 5 μm-thick sections were prepared and preserved at −80° C. until they were used. […] 3 (radioactivity concentration: approximately 10 kBq/mL) was prepared, and the hydrophilized sections were immersed therein at room temperature for 30 minutes. […]

Experiment [7] has as its system heart tissue section of an ischemic heart disease model rat. As to the kind of experiment: In vitro autoradiography using ischemic heart disease model rat (Example 10). The following applies: ischemic heart disease model rat one week after operation, approximately 10 kBq/mL, FIG. 14. The experiment is classed as binding. How it is done: as §1
Each ischemic heart disease model rat was prepared in the same way as in Example 1. The rat was sacrificed under isoflurane anesthesia in one week after the operation. […] 3 (radioactivity concentration: approximately 10 kBq/mL) was prepared, and the hydrophilized sections were immersed therein at room temperature for 30 minutes. […]

Turning to `Fc1cc2nc(-c3cncc(Cn4ccnc4)c3)n(CC[18F])c2cc1Cl` [Compound [^18F] 1, 6-chloro-5-fluoro-1-(2-[^18F]fluoroethyl)-2-[5-(imidazol-1-ylmethyl)pyridin-3-yl]benzimidazole], the “staining findings at the position corresponding to the accumulation site” value in experiment [1] (HE, Masson trichrome and CYP11B2 immunostaining of adjacent section, FIG. 3) is “inflammatory reaction, fibrosis, and CYP11B2 expression were also confirmed at a position corresponding to the accumulation site”. Besides, the “accumulation in the heart on ex vivo autoradiogram” value in experiment [1] (approximately 50 MBq/rat, 1 to 3 weeks after operation, heart taken 20 minutes after administration, FIG. 2) was “local accumulation of Compound [^18F] 1 was confirmed”. In addition, in experiment [2], the “accumulation in the presence of an excessive amount of non-labeled compound (binding specificity)” value is “inhibited by the addition of an excessive amount of a non-labeled compound, suggesting that the binding is specific”; the “ratio of ischemia reperfusion site signal intensity/non-ischemic site signal intensity” value is on record as “increased accumulation”; the “accumulation in lesion region on in vitro autoradiogram” value is “accumulation of Compound [^18F] 1 in a lesion region was confirmed”.

Consider `FCCn1c(-c2cncc(Cn3ccnc3)c2)nc2ccc([123I])cc21` [Compound [^123I] 2, 1-(2-fluoroethyl)-2-[5-{(imidazol-1-yl)methyl}pyridin-3-yl]-6-[^123I]iodobenzimidazole], for which, in experiment [2], the “accumulation in the presence of an excessive amount of non-labeled compound (binding specificity)” value was “inhibited by the addition of an excessive amount of a non-labeled compound, suggesting that the binding is specific”; the “ratio of ischemia reperfusion site signal intensity/non-ischemic site signal intensity” value is recorded as “increased accumulation”; the “accumulation in lesion region on in vitro autoradiogram” value is “accumulation of Compound [^123I] 2 in a lesion region was confirmed”. Moreover, the “agreement of accumulation with fibrosis region” value in experiment [2] (Masson trichrome staining of the same section, FIG. 6) is “in good agreement with a fibrosis region”. Also, the “accumulation compared between the two labeled compounds” value in experiment [2] (signal intensity ratio, FIG. 7(b) versus 7(d)) is “Higher accumulation of Compound [^123I] 2 than that of Compound [^18F] 1”. The “ratio of ischemia reperfusion site signal intensity/non-ischemic site signal intensity with elapsed time” value in experiment [3] is “increased with elapsed time after the operation”. Also, in experiment [4], the “accumulation in the heart on SPECT image” value is reported as “confirmed in the heart of the ischemic heart disease model rat”. Moreover, in the experiment on normal rat, the “accumulation in the heart on SPECT image” value is listed as “not observed in the heart of the normal rat”.

Regarding `Cn1c(-c2cncc(Cn3ccnc3)c2)nc2ccc([123I])cc21` [Compound [^123I] 3, 2-[5-{(1H-imidazol-1-yl)methyl}pyridin-3-yl]-6-[^123I]iodo-1-methyl-1H-benz[d]imidazole], the “agreement of accumulation with fibrosis region” value is listed as “in good agreement with a fibrosis region” in experiment [5] (Masson trichrome staining of adjacent section, FIG. 11) and “in good agreement with a fibrosis region” in experiment [6] (Masson trichrome staining of adjacent section, FIG. 13). Also, the “accumulation in heart tissue section compared with normal rat” value in experiment [5] (approximately 10 kBq/mL, FIG. 11(a),(b)) is on record as “increased accumulation”; in experiment [6] (approximately 10 kBq/mL, FIG. 13(a),(b)) it was “increased accumulation”. Also, the “accumulation in lesion region compared with normal rat” value in experiment [7] is “increased accumulation”.
